Like-named read-outs stand apart in the source and are kept apart here.
Tests used:
Format in all cases: in vivo
[1] = system: winter barley (Hordeum vulgare); test: Test B postemergence plant response; settings: Hordeum vulgare, post-emergence, Postemergence, read-out: Plant response rating, Barley
In short: (§1)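 Plants at the 1- to 4-leaf stage (2 to 18 cm tall), grown in pots of peat moss/vermiculite medium with wetting agent and starter nutrients, received postemergence applications of test chemicals. After 13 to 15 days in a greenhouse, injury was rated visually against untreated controls on a 0 (no effect) to 100 (complete control) scale.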

[2] = system: chickweed (Stellaria media); test: Test B postemergence plant response; settings: Stellaria media, post-emergence, 360 h, Postemergence, read-out: Plant response rating, Chickweed
In short: as §1

[3] = system: canarygrass (Phalaris minor); test: Test B postemergence plant response; settings: Phalaris minor, post-emergence, 360 h, Postemergence, read-out: Plant response rating, Canarygrass
In short: as §1

[4] = system: windgrass (Apera spica-venti); test: Test B postemergence plant response; settings: Apera spica-venti, post-emergence, 360 h, Postemergence, read-out: Plant response rating, Windgrass
In short: as §1

[5] = system: barnyardgrass (Echinochloa crus-galli); test: Test A pre-/postemergence plant response; settings: Echinochloa crus-galli, 240 h; for pest or weed control at 125 g/ha: 125 g ai/ha; for pest or weed control at 500 g/ha: 500 g ai/ha
In short: (§2)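 Both pre- and postemergence treatments are applied simultaneously, using chemicals formulated in a non-phytotoxic solvent mixture with surfactant. Postemergence plants are 2–10 cm high with one to two leaves. After approximately ten days in a greenhouse, injury is scored visually from 0 (none) to 100 (complete control) relative to untreated plants.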

corn (Zea mays) = test: Test A pre-/postemergence plant response; settings: Zea mays, 240 h; for Corn plant response rating (crop injury, 0 = no effect, 100 = complete kill) at 125 g/ha: 125 g ai/ha
In short: as §2

[6] = system: morningglory (Ipomoea spp.); test: Test A pre-/postemergence plant response; settings: Ipomoea, 240 h; for pest or weed control at 125 g/ha: 125 g ai/ha; for pest or weed control at 500 g/ha: 500 g ai/ha
In short: as §2

[7] = system: wheat (Triticum aestivum); test: Test A pre-/postemergence plant response; settings: Triticum aestivum, 240 h; for plant injury at 125 g/ha: 125 g ai/ha; for plant injury at 500 g/ha: 500 g ai/ha
In short: as §2

[8] = system: velvetleaf (Abutilon theophrasti); test: Test A pre-/postemergence plant response; settings: Abutilon theophrasti, 240 h; for pest or weed control at 125 g/ha: 125 g ai/ha; for pest or weed control at 500 g/ha: 500 g ai/ha
In short: as §2

[9] = system: pigweed (Amaranthus retroflexus); test: Test A pre-/postemergence plant response; settings: Amaranthus retroflexus, 240 h; for pest or weed control at 125 g/ha: 125 g ai/ha; for pest or weed control at 500 g/ha: 500 g ai/ha
In short: as §2

[10] = system: giant foxtail (Setaria faberii); test: Test A pre-/postemergence plant response; settings: Setaria faberi, 240 h; for pest or weed control at 125 g/ha: 125 g ai/ha; for pest or weed control at 500 g/ha: 500 g ai/ha
In short: as §2

[11] = system: large crabgrass (Digitaria sanguinalis); test: Test A pre-/postemergence plant response; settings: Digitaria sanguinalis, 240 h; for pest or weed control at 125 g/ha: 125 g ai/ha; for pest or weed control at 500 g/ha: 500 g ai/ha
In short: as §2

[12] = 31 g ai/ha, 0 to 100 scale (0 no effect, 100 complete control)
[13] = 62 g ai/ha, scale 0 to 100 (0 no effect, 100 complete control)
[14] = 125 g ai/ha, scale 0 (no effect) to 100 (complete control), 13 to 15 days
[15] = 250 g ai/ha, scale 0 to 100 (0 no effect, 100 complete control), 13 to 15 days
[16] = pre-emergence, Preemergence, 0 to 100 scale, 0 = no effect, 100 = complete control, read-out: Plant response rating, Barnyardgrass
[17] = pre-emergence, Preemergence, 0 to 100 scale, 0 = no effect, 100 = complete control, read-out: Plant response rating, Morningglory
[18] = pre-emergence, Preemergence, 0 to 100 scale, 0 = no effect, 100 = complete control, read-out: Plant response rating, Wheat
[19] = pre-emergence, Preemergence, 0 to 100 scale, 0 = no effect, 100 = complete control, read-out: Plant response rating, Velvetleaf
[20] = pre-emergence, Preemergence, 0 to 100 scale, 0 = no effect, 100 = complete control, read-out: Plant response rating, Pigweed
[21] = pre-emergence, Preemergence, 0 to 100 scale, 0 = no effect, 100 = complete control, read-out: Plant response rating, Foxtail, Giant
[22] = pre-emergence, Preemergence, 0 to 100 scale, 0 = no effect, 100 = complete control, read-out: Plant response rating, Crabgrass, Large

COCCn1c(-c2cc(F)cc(F)c2)ncc(C(=O)C2=C(O)C3CCC(C3)C2=O)c1=O (stereo not drawn) [Compound 243, 2-(3,5-difluorophenyl)-5-[(2-hydroxy-4-oxobicyclo[3.2.1]oct-2-en-3-yl)carbonyl]-3-(2-methoxyethyl)-4(3H)-pyrimidinone]
plant injury at 31 g/ha [1, 12]: 60% | plant injury at 62 g/ha [1, 13]: 90% | plant injury at 125 g/ha [1, 14]: 95% | plant injury at 250 g/ha [1, 15]: 95% | pest or weed control at 31 g/ha [2, 12]: 80% | pest or weed control at 62 g/ha [2, 13]: 100% | pest or weed control at 125 g/ha [2, 14]: 100% | pest or weed control at 250 g/ha [2, 15]: 100% | pest or weed control at 31 g/ha [3, 12]: 90% | pest or weed control at 62 g/ha [3, 13]: 98% | pest or weed control at 125 g/ha [3, 14]: 100% | pest or weed control at 250 g/ha [3, 15]: 100% | pest or weed control at 31 g/ha [4, 12]: 80% | pest or weed control at 62 g/ha [4, 13]: 90% | pest or weed control at 125 g/ha [4, 14]: 98% | pest or weed control at 250 g/ha [4, 15]: 100% | pest or weed control at 125 g/ha ([5]; post-emergence, Postemergence, 0 to 100 scale where 0 is no effect and 100 is complete control, read-out: Plant response rating, Barnyardgrass): 100% | pest or weed control at 500 g/ha ([5]; post-emergence, Postemergence, visual injury, 0 to 100 scale (0 no effect, 100 complete control), approx. ten days, read-out: Barnyardgrass plant response rating): 100% | pest or weed control at 125 g/ha [5, 16]: 70% | pest or weed control at 500 g/ha [5, 16]: 100% | Corn plant response rating (crop injury, 0 = no effect, 100 = complete kill) at 125 g/ha (corn (Zea mays); post-emergence, Postemergence, 0 to 100 scale where 0 is no effect and 100 is complete control): 70% | plant injury at 500 g/ha (corn (Zea mays); post-emergence, Postemergence, 500 g ai/ha, visual injury, 0 to 100 scale (0 no effect, 100 complete control), approx. ten days, read-out: Corn plant response rating): 90% | Corn plant response rating (crop injury, 0 = no effect, 100 = complete kill) at 125 g/ha (corn (Zea mays); pre-emergence, Preemergence, 0 to 100 scale, 0 = no effect, 100 = complete control): 30% | Corn plant response rating (crop injury, 0 = no effect, 100 = complete kill) at 500 g/ha (corn (Zea mays); pre-emergence, Preemergence, 500 g ai/ha, 0 to 100 scale, 0 = no effect, 100 = complete control): 60% | pest or weed control at 125 g/ha ([6]; post-emergence, Postemergence, 0 to 100 scale where 0 is no effect and 100 is complete control, read-out: Plant response rating, Morningglory): 100% | pest or weed control at 500 g/ha ([6]; post-emergence, Postemergence, visual injury, 0 to 100 scale (0 no effect, 100 complete control), approx. ten days, read-out: Morningglory plant response rating): 100% | pest or weed control at 125 g/ha [6, 17]: 70% | pest or weed control at 500 g/ha [6, 17]: 90% | plant injury at 125 g/ha ([7]; post-emergence, Postemergence, 0 to 100 scale where 0 is no effect and 100 is complete control, read-out: Plant response rating, Wheat): 70% | plant injury at 500 g/ha ([7]; post-emergence, Postemergence, visual injury, 0 to 100 scale (0 no effect, 100 complete control), approx. ten days, read-out: Wheat plant response rating): 90% | plant injury at 125 g/ha [7, 18]: 30% | plant injury at 500 g/ha [7, 18]: 70% | pest or weed control at 125 g/ha ([8]; post-emergence, Postemergence, 0 to 100 scale where 0 is no effect and 100 is complete control, read-out: Plant response rating, Velvetleaf): 100% | pest or weed control at 500 g/ha ([8]; post-emergence, Postemergence, visual injury, 0 to 100 scale (0 no effect, 100 complete control), approx. ten days, read-out: Velvetleaf plant response rating): 100% | pest or weed control at 125 g/ha [8, 19]: 90% | pest or weed control at 500 g/ha [8, 19]: 100% | pest or weed control at 125 g/ha ([9]; post-emergence, Postemergence, 0 to 100 scale where 0 is no effect and 100 is complete control, read-out: Plant response rating, Pigweed): 100% | pest or weed control at 500 g/ha ([9]; post-emergence, Postemergence, visual injury, 0 to 100 scale (0 no effect, 100 complete control), approx. ten days, read-out: Pigweed plant response rating): 100% | pest or weed control at 125 g/ha [9, 20]: 100% | pest or weed control at 500 g/ha [9, 20]: 100% | pest or weed control at 125 g/ha ([10]; post-emergence, Postemergence, 0 to 100 scale where 0 is no effect and 100 is complete control, read-out: Plant response rating, Foxtail, Giant): 100% | pest or weed control at 500 g/ha ([10]; post-emergence, Postemergence, visual injury, 0 to 100 scale (0 no effect, 100 complete control), approx. ten days, read-out: Foxtail, Giant plant response rating): 100% | pest or weed control at 125 g/ha [10, 21]: 90% | pest or weed control at 500 g/ha [10, 21]: 100% | pest or weed control at 125 g/ha ([11]; post-emergence, Postemergence, 0 to 100 scale where 0 is no effect and 100 is complete control, read-out: Plant response rating, Crabgrass, Large): 90% | pest or weed control at 500 g/ha ([11]; post-emergence, Postemergence, visual injury, 0 to 100 scale (0 no effect, 100 complete control), approx. ten days, read-out: Crabgrass, Large plant response rating): 90% | pest or weed control at 125 g/ha [11, 22]: 100% | pest or weed control at 500 g/ha [11, 22]: 100%

Source: patent publication US8952024B2, “Herbicidal pyrimidone derivatives” (E I du Pont de Nemours and Company, priority 2009, dated 2015)
